# Test results as given in the supplement of paper PMC10307832.
# Experiments:
# Assay in all cases: relative viability (nuclei count vs DMSO), 5 days (fraction); higher = more cells survive
# [1] = compound: C1COCCN1C2=NC(=NC3=C2OC4=C3C=CC=N4)C5=CC(=CC=C5)NC(=O)C6=CN=C(C=C6)N + CC1(C)CCC(c2ccc(Cl)cc2)=C(CN2CCN(c3ccc(C(=O)NS(=O)(=O)c4ccc(N[C@H](CCN5CCOCC5)CSc5ccccc5)c(S(=O)(=O)C(F)(F)F)c4)cc3)CC2)C1 [Navitoclax] (partner 0.5 µM)
# Summary of the method: (§1)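 Nuclei were stained with Hoechst during a one-step fixation (final 0.05% Triton X-100, 1% formaldehyde, 1 ug/ml Hoechst) carried out 5 days after dosing, then counted on 4× images. The cells, lung cancer lines in 1536-well plates, had been dosed by pin tool the day after seeding with one drug alone or a fixed anchor-drug dose plus five library-drug doses (not always all listed) in √10 steps. Relative viability is the nuclei count in treated wells divided by that in vehicle wells, and each value is the median of duplicate plates.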
# [2] = compound: Nc1ccccc1NC(=O)c1ccc(CNC(=O)OCc2cccnc2)cc1 [Entinostat] + Cc1nc(NC(=O)N2CCC[C@H]2C(N)=O)sc1-c1ccnc(C(C)(C)C(F)(F)F)c1 [Alpelisib] (partner 2 µM)
# Summary of the method: as §1
# [3] = compound: Nc1ccccc1NC(=O)c1ccc(CNC(=O)OCc2cccnc2)cc1 [Entinostat] + Cc1cc(Nc2cc(N3CCN(C)CC3)nc(Sc3ccc(NC(=O)C4CC4)cc3)n2)n[nH]1 [Tozasertib] (partner 0.1 µM)
# Summary of the method: as §1
# [4] = compound: Nc1ccccc1NC(=O)c1ccc(CNC(=O)OCc2cccnc2)cc1 [Entinostat] + CC1(C)CCC(c2ccc(Cl)cc2)=C(CN2CCN(c3ccc(C(=O)NS(=O)(=O)c4ccc(N[C@H](CCN5CCOCC5)CSc5ccccc5)c(S(=O)(=O)C(F)(F)F)c4)cc3)CC2)C1 [Navitoclax] (partner 0.5 µM)
# Summary of the method: as §1
Cell Line,relative viability ([1]; first compound 0.02 µM),relative viability ([1]; first compound 0.06325 µM),relative viability ([1]; first compound 0.2 µM),relative viability ([1]; first compound 0.6325 µM),relative viability ([1]; first compound 2 µM),relative viability ([2]; first compound 0.02 µM),relative viability ([2]; first compound 0.06325 µM),relative viability ([2]; first compound 0.2 µM),relative viability ([2]; first compound 0.6325 µM),relative viability ([2]; first compound 2 µM),relative viability ([3]; first compound 0.02 µM),relative viability ([3]; first compound 0.06325 µM),relative viability ([3]; first compound 0.2 µM),relative viability ([3]; first compound 0.6325 µM),relative viability ([3]; first compound 2 µM),relative viability ([4]; first compound 0.02 µM),relative viability ([4]; first compound 0.06325 µM),relative viability ([4]; first compound 0.2 µM),relative viability ([4]; first compound 0.6325 µM),relative viability ([4]; first compound 2 µM)
LU99A,0.779,0.842,0.786,0.587,0.277,0.517,0.5,0.546,0.418,0.324,0.281,0.294,0.292,0.239,0.228,0.752,0.916,0.75,0.567,0.421
LXF-289,0.989,1.02,0.973,0.924,0.711,1.01,1.02,0.931,0.808,0.588,0.203,0.172,0.204,0.17,0.145,0.929,0.908,0.922,0.786,0.567
NCI-H23,0.788,0.968,0.733,0.72,0.533,0.773,0.666,0.82,0.674,0.364,0.364,0.264,0.292,0.193,0.121,0.727,0.88,0.873,0.668,0.433
NCI-H322M,1.14,1.19,1.21,0.924,1.12,0.817,0.826,0.738,0.866,0.675,0.505,0.555,0.519,0.461,0.448,1.3,1.17,1.27,1.27,0.845
NCI-H441,0.546,0.566,0.571,0.665,0.297,0.577,0.665,0.608,0.22,0.18,0.593,0.483,0.425,0.275,0.224,0.689,0.505,0.632,0.233,0.0467
NCI-H460,1.38,1.47,1.19,0.957,0.0442,0.491,0.463,0.285,0.0307,0.0143,0.395,0.0956,0.0498,0.0451,0.0275,1.08,0.973,1.04,0.0885,0.0187
NCI-H520,1.12,1.17,1.06,1.07,0.713,0.836,0.848,0.963,0.764,0.451,0.47,0.441,0.38,0.331,0.325,1.02,1.02,1.21,0.916,0.456
NCI-H596,1.04,0.983,1.03,0.912,0.444,0.533,0.496,0.272,0.411,0.356,0.76,0.93,1.14,0.621,0.503,0.923,0.962,0.861,0.8,0.581
NCI-H647,1.18,1.11,1.22,1.16,0.704,1.09,1.28,1.06,0.419,0.11,0.32,0.214,0.228,0.0707,0.0371,0.96,0.995,0.928,0.374,0.0716
NCI-H727,0.351,0.501,0.343,0.357,0.337,0.708,0.669,0.545,0.264,0.297,0.605,0.647,0.497,0.392,0.403,0.443,0.356,0.312,0.177,0.163
NCI-H838,0.92,1.14,1.09,0.946,0.437,1.03,1.15,1.13,0.72,0.301,0.287,0.261,0.239,0.146,0.127,1.21,1.27,1.17,0.694,0.296
NCI-H1355,0.924,1.08,0.909,0.841,0.9,0.83,0.806,0.641,0.514,0.426,0.525,0.484,0.412,0.303,0.275,0.987,0.946,0.747,0.583,0.444
NCI-H1395,0.919,1.07,1.03,1.25,1.19,1.09,1.22,1.02,0.81,0.522,0.668,0.721,0.696,0.496,0.47,1.12,1.25,1.19,0.875,0.794
NCI-H1437,1.15,1.16,1.04,1.08,0.563,0.822,0.594,0.388,0.167,0.138,0.31,0.253,0.181,0.132,0.108,1.01,0.679,0.432,0.216,0.155
NCI-H1651,1.33,1.18,0.984,1.15,0.614,1.08,0.979,0.994,0.748,0.372,0.619,0.705,0.584,0.333,0.237,1.02,1.06,1.09,0.709,0.273
